Measured values as given in US12139459B2, “Enhancer of fertilization function of sperm” (TOHOKU UNIVERSITY, priority 2018, dated 2024).

Legend:
[1] = tested on: sperms of male C57/B6 mice (fertilization function of a mammal sperm); assay: Semination by in vitro fertilization with sperms precultured in test culture medium; two-cell egg formation; format: cell-based

| melting point [°C] | Structure (SMILES) | other results |
| --- | --- | --- |
| 205 to 206 | COc1ccc2[nH]cc(C(CC(=O)c3ccc(F)cc3F)C(=O)O)c2c1 (centres unmarked) [(3-4), 4-(2,4-difluorophenyl)-2-(5-methoxy-1H-indol-3-yl)-4-oxo-butanoic Acid] |  |
| 210 to 214 | O=C(CC(C(=O)O)c1c[nH]c2cc(F)ccc12)c1ccc(F)cc1F (centres unmarked) [Compound (4-1), 4-(2,4-difluorophenyl)-2-(6-fluoro-1H-indol-3-yl)-4-oxo-butanoic Acid] |  |
| 225 to 227 | O=C(CC(C(=O)O)c1c[nH]c2c(Cl)cccc12)c1ccc(F)cc1F (centres unmarked) [(5-1), 2-(7-chloro-1H-indol-3-yl)-4-(2,4-difluorophenyl)-4-oxo-butanoic Acid] |  |
| 200 to 202 | Cc1ccc2[nH]cc(C(CC(=O)c3ccc(F)cc3F)C(=O)O)c2c1 (centres unmarked) [(3-3), 4-(2,4-difluorophenyl)-2-(5-methyl-1H-indol-3-yl)-4-oxo-butanoic Acid] |  |
| 203 to 204 | O=C(CC(C(=O)O)c1c[nH]c2cccc(Cl)c12)c1ccc(F)cc1F (centres unmarked) [(2-1), 2-(4-chloro-1H-indol-3-yl)-4-(2,4-difluorophenyl)-4-oxo-butanoic Acid] |  |
| 207 to 208 | O=C(CC(C(=O)O)c1c[nH]c2ccc(F)cc12)c1ccc(F)cc1F (centres unmarked) |  |
| 236 to 239 | O=C(CC(C(=O)O)c1c[nH]c2ccc(Cl)cc12)c1ccc(F)cc1F (centres unmarked) [(3-2), 2-(5-chloro-1H-indol-3-yl)-4-(2,4-difluorophenyl)-4-oxo-butanoic Acid] |  |
| 181 to 183 | COc1cccc2c(C(CC(=O)c3ccc(F)cc3F)C(=O)O)c[nH]c12 (centres unmarked) [(5-2), 4-(2,4-difluorophenyl)-2-(7-methoxy-1H-indol-3-yl)-4-oxo-butanoic Acid] |  |

The remaining lines, values behind:

| Structure (SMILES) | melting point [°C] | other results |
| --- | --- | --- |
| CCCOc1ccc2[nH]cc(CC(=O)O)c2c1 [Compound #38, 5-(1-Propoxy)-3-indoleacetic Acid] | 133.6 to 136.8 |  |
| CCCCOc1ccc2[nH]cc(CC(=O)O)c2c1 [Compound #39, 5-(1-Butoxy)-3-indoleacetic Acid] | 137.8 to 141.1 |  |
| CCCn1cc(C(CC(=O)c2ccc(C)cc2C)C(=O)O)c2ccccc21 (centres unmarked) [Compound #6, 4-(2,4-Dimethylphenyl)-2-(1-propyl-1H-indol-3-yl)-4-oxo-butanoic Acid] | 139 to 141 |  |
| Cn1cc(C(CC(=O)c2ccc(F)cc2F)C(=O)O)c2ccccc21 (centres unmarked) [(6-1), 4-(2,4-difluorophenyl)-2-(1-methyl-1H-indol-3-yl)-4-oxo-butanoic Acid] | 192 to 193 |  |
| O=C(CC(C(=O)O)c1c[nH]c2cc(OCc3ccccc3)ccc12)c1ccc(F)cc1F (centres unmarked) [(4-2), 2-(6-benzyloxy-1H-indol-3-yl)-4-(2,4-difluorophenyl)-4-oxo-butanoic Acid] | 177 to 178 |  |
| N#CC(C#N)=NNc1ccc(OC(F)(F)F)cc1 [FCCP, carbonyl cyanide-p-trifluoromethoxyphenylhydrazone, reference compound] |  | Fertilization rate (%) ([1]; sperms precultured 1 hour in TYH culture medium containing 10 μM FCCP (uncoupler), control without FCCP 47.4%): 30%; The number of two-cell eggs ([1]; sperms precultured 1 hour in TYH culture medium containing 10 μM FCCP, 10 ova): 3 |
| CCOc1ccc2[nH]cc(CC(=O)O)c2c1 [Compound #37, 5-Ethoxy-3-indoleacetic Acid] | 86 to 92.7 |  |
| O=C(CC(C(=O)O)c1c[nH]c2ccccc12)c1ccc(F)cc1F (centres unmarked) [Compound #5, 4-(2,4-Difluorophenyl)-2-(1H-indol-3-yl)-4-oxo-butanoic Acid] |  | The number of two-cell eggs ([1]; sperms precultured 1 hour in TYH culture medium containing 1 μM compound #5, 11 ova): 11; Fertilization rate (%) ([1]; sperms precultured 1 hour in TYH culture medium containing 1 μM compound #5, two-cell eggs observed 24 to 28 hours after semination, control without compound 40%): 100%; The number of two-cell eggs ([1]; sperms precultured 1 hour in TYH culture medium containing 10 μM FCCP and 1 μM compound #5, 10 ova): 5; Fertilization rate (%) ([1]; sperms precultured 1 hour in TYH culture medium containing 10 μM FCCP and 1 μM compound #5, FCCP alone 30%): 50% |
| CCCCOc1ccc2cccc(CC(=O)O)c2c1 [Compound #33, α-(7-Butoxy-1-naphthalenyl)-acetic Acid] | 102 to 104 |  |
| CCCCCOc1ccc2cccc(CC(=O)O)c2c1 [Compound #34, α-(7-Pentoxy-1-naphthalenyl)-acetic Acid] | 104 to 106 |  |
| O=C(CC(C(=O)O)c1c[nH]c2ccccc12)c1ccccc1 (centres unmarked) [Compound #20, 4-Phenyl-2-(1H-indol-3-yl)-4-oxo-butanoic Acid] | 149 to 150 |  |
